# In article PMC8597046, “Use of Mixture Dosing and Nonlinear Mixed Effect Modeling of Eight Environmental Contaminants in Rabbits to Improve Extrapolation Value of Toxicokinetic Data” (Environmental Health Perspectives, 2021):
# Tests used:
# [1] = TK assay, intravenous mixture dosing: serum concentrations and noncompartmental analysis (sparse data); settings: female, rabbit, in vivo, iv; for AUC(0-inf) / Cmax / MRT / clearance / half-life / Vd: New Zealand white (INRA 1777 line); for concentration at 24.03 h / concentration at 24 h / concentration at 72 h / concentration at 72.03 h / concentration at 71.97 h / concentration at 168 h / concentration at 167.92 h / concentration at 0.67 h / concentration at 671.96 h / concentration at 0.77 h / concentration at 672 h / concentration at 0.6 h / concentration at 671.83 h / Serum concentration: New Zealand white; for concentration at 24.03 h / concentration at 24 h / concentration at 72 h / concentration at 72.03 h / concentration at 71.97 h / concentration at 168 h / concentration at 167.92 h / concentration at 0.67 h / concentration at 671.96 h / concentration at 0.77 h / concentration at 672 h / concentration at 0.6 h / concentration at 671.83 h: Serum concentration
# Protocol: The experiment was carried out on thirty 10-wk old female New Zealand white rabbits (INRA 1777 line) weighing 2.37±0.14kg . […] Blood samples were taken at the designated time points post IV and oral administration: 15 min, 30 min, 1 h, 2 h, 4 h, 8 h, 12 h, 24 h, 3 d, 7 d, and 28 d from groups of 3 or 6 rabbits at each sampling time. Each rabbit was sampled 3 times and 3 rabbits were sampled at each sampling time, except at 30 min post administration, when 6 samples were collected to provide a sufficient blood volume for assaying the compounds. The doses and assay time points were selected to allow the calculation of TK parameters (Table 1) based on preliminary TK data. Residual concentrations of the compounds, and their possible evolution over time, were determined by sampling six entirely untreated rabbits during the TK study on the day of drug administrations, then 14 d and 28 d later.
# The volume administered was adjusted to the animal’s body weight (BW) recorded the day before.
# Intravenous administrations were performed via an indwelling catheter (22G Terumo, 0.9×25mm ) just after its insertion into an ear vein. […] For oral administrations, the mixture of all compounds ( 4mL/kg ) was deposited directly in the mouth of rabbits using a catheter (22G BD Insyte 22G, 0.9×25mm ). Prior to the study, the rabbits had been trained to gradually swallow water and then corn oil.
# Blood samples were collected from the auricular artery using a 20 G needle ( 0.9×25mm ) and a dry tube. The first two blood samples were 8–10mL in volume, whereas a large volume (about 20mL ) was obtained antemortem immediately after electrical stunning (95LX rabbit stunner; Burdis), followed by exsanguination.
# Serum concentration-time profiles of the different compounds were first analyzed using a noncompartmental approach (NCA) involving a sparse data option. Sparse data methodology consists of calculating TK parameters based on the mean profile of all the subjects in the dataset and is appropriate when a rich data series cannot be obtained, as in the present experiment ([FDA 1999]). The area under the concentration time curve ( AUC0−tlast ) and the area under the first moment curve ( AUMC0−tlast ) from dosing time ( t=0 ) to the time of the last measurable concentration were calculated using the linear trapezoidal rule after IV and oral dosing. The area under the serum concentration time curve from dosing time to infinity ( AUC0−inf ) was obtained by adding to AUC0−tlast the area extrapolated from the time of the last measurable concentration to infinity by dividing the last quantifiable serum concentration by the slope of the terminal phase ( λZ ), as estimated by linear regression using the best fit option of Phoenix®.
# The clearance (CL) and apparent clearance (CL_F) were respectively estimated after IV and oral administrations by dividing the administered dose by the AUC0−inf calculated for each analyte.
# The terminal half-life (HL) was estimated with Equation 1: (1) HL=0.69315/λZ where λz is the slope of the terminal phase.
# The mean residence time (MRT) was estimated using Equation 3: (3) MRT=AUMCiv0−tlast /AUCiv0−tlast , where AUCMiv0−tlast and AUCiv0−tlast are the values of AUMC0−tlast and AUC0−tlast obtained after IV dosing.
# The steady-state volume of distribution ( VSS ) was estimated using Equation 4: (4) VSS=CL×MRT, with CL and MRT as defined above.
# [2] = Estimation of loading and daily maintenance doses and NLME model simulations; parameters: species or system female rabbits; settings: oral; for Computed maintenance dose: daily; for Computed maintenance dose / Computed loading dose: scaled to the targeted CSS of Table 6; for Daily maintenance dose: to maintain serum concentration of 1 ng/mL, daily CL×Css/F; for Daily maintenance dose / Loading dose: DEHP dose for MEHP in serum; for Loading dose: to rapidly attain serum concentration of 1 ng/mL, Vss×Css/F
# Protocol: The ultimate goal of this TK investigation was to compute a dosage regimen that allowed targeted steady-state serum concentrations to be attained rapidly for a planned TK/TD trial on the reprotoxic effect of a mixture of environmental contaminants in female rabbits. […] With that in mind, the loading and the daily maintenance doses of each compound were evaluated using Equations 12 and 13, respectively.
# This risk was also the reason why the NLME model was employed to simulate the time development of the amounts of compounds in the central and peripheral compartments following administration of the daily maintenance dose of each compound over the same duration.
# The loading and maintenance doses computed to ensure a nominal CSS of 1 ng/mL were scaled to determine the doses to be administrated by oral route to female rabbits to maintain the targeted CSS .
# [3] = Chronic exposure: daily oral mixture for 17 wk, steady-state serum concentrations; settings: female, New Zealand white (INRA 1777 line), rabbit, in vivo, po
# Protocol: The objective of this preliminary experiment was to check the ability of our approach to determine the loading and maintenance doses of the eight compounds to be administered simultaneously by oral route to reproduce in female rabbits targeted serum concentrations. The experiment was carried out on thirty-two 2-wk old female New Zealand white rabbits (INRA 1777 line) randomly allocated to a treatment and control groups of 16 rabbits weighing 309±45g and 298±62g , respectively. The treated rabbits were orally administrated a mixture of the eight compounds at a dosage corresponding to the sum of the loading and daily maintenance doses followed by daily administrations of the maintenance dose for 17 wk (see the “Estimation of the doses” section). The control group was orally administrated the vehicle for the same duration.
# The volume of the maintenance dosing solution ( 1mL/kg ) was weekly adjusted to the mean BW estimated from the known pattern of growth of the INRA 1777 rabbit line. Oral dosing and antemortem blood sampling were performed as previously described.
# Blood samples were left to clot for about 20–30 min at ambient temperature and centrifuged for 20 min at 3,000×g at 25°C. The separated serum was stored in glass tubes at −20°C until assayed.
smiles,measurement,setting,value
"Cl[C@H]1[C@H](Cl)[C@@H](Cl)[C@H](Cl)[C@@H](Cl)[C@@H]1Cl [β-HCH, β-hexachlorocyclohexane]",AUC(0-inf),[1],26.7 µM·h
same,Cmax,[1],320 nM
same,MRT,[1],22.6 days
same,clearance,[1],0.95 mL/min/kg
same,half-life,[1],13.8 days
same,Vd,"[1]; VSS, IV mixture dosing, NCA, n=12",30.9 L/kg
same,Vd,"[1]; VZ, IV mixture dosing, NCA, n=12",27.1 L/kg
same,concentration at 24.03 h,"[1]; rabbit 1, 24.03 h",62 nM
same,concentration at 24 h,"[1]; rabbit 2, […]",50 nM
same,concentration at 24 h,"[1]; rabbit 3, […]",76 nM
same,concentration at 72 h,"[1]; rabbit 4, 72.00 h",36 nM
same,concentration at 72.03 h,"[1]; rabbit 5, 72.03 h",34 nM
same,concentration at 71.97 h,"[1]; rabbit 6, 71.97 h",29 nM
same,concentration at 168 h,"[1]; rabbit 7, 168.00 h",20 nM
same,concentration at 167.92 h,"[1]; rabbit 8, 167.92 h",18 nM
same,concentration at 168 h,"[1]; rabbit 9, 168.00 h",25 nM
same,concentration at 0.67 h,"[1]; rabbit 10, 0.67 h",320 nM
same,concentration at 671.96 h,"[1]; rabbit 10, 671.96 h",6.5 nM
same,concentration at 0.77 h,"[1]; rabbit 11, 0.77 h",250 nM
same,concentration at 672 h,"[1]; rabbit 11, 672.00 h",21 nM
same,concentration at 0.6 h,"[1]; rabbit 12, 0.60 h",270 nM
same,concentration at 671.83 h,"[1]; rabbit 12, 671.83 h",9.6 nM
same,Computed maintenance dose,[2],0.011 mg/kg
same,Computed loading dose,[2],163 µg/kg
same,Daily maintenance dose,[2],0.0024 mg/kg
same,Loading dose,[2],0.037 mg/kg
same,concentration at 17 wk,[3],4.3 ± 1.6 ng/mL
"ClC(Cl)=C(c1ccc(Cl)cc1)c1ccc(Cl)cc1 [pp′DDE, 1,1-Dichloro-2,2-bis(p-chlorophenyl)ethylene]",AUC(0-inf),[1],19.8 µM·h
same,Cmax,[1],900 nM
same,MRT,[1],8.46 days
same,clearance,[1],1.83 mL/min/kg
same,half-life,[1],9.92 days
same,Vd,[1]; VSS,23.2 L/kg
same,Vd,[1]; VZ,39.2 L/kg
same,Serum concentration,[1]; 24 h,60 nM
same,Serum concentration,[1]; 168 h,15 nM
same,concentration at 0.6 h,[1],600 nM
same,concentration at 0.67 h,[1],900 nM
same,concentration at 0.77 h,[1],640 nM
same,concentration at 24 h,[1],65 nM
same,concentration at 24.03 h,[1],47 nM
same,concentration at 71.97 h,[1],27 nM
same,concentration at 72 h,[1],26 nM
same,concentration at 72.03 h,[1],27 nM
same,concentration at 167.92 h,[1],11 nM
same,concentration at 168 h,[1],19 nM
same,concentration at 671.83 h,[1],3.7 nM
same,concentration at 671.96 h,[1],2.8 nM
same,concentration at 672 h,[1],6.8 nM
same,Computed maintenance dose,[2],0.095 mg/kg
same,Computed loading dose,[2],"1,039 μg/kg"
same,Daily maintenance dose,[2],0.0045 mg/kg
same,Loading dose,[2],0.049 mg/kg
same,concentration at 17 wk,[3],25 ± 12 ng/mL
